Patent publication US6677368B2, “4-aryl substituted indolinones” (Sugen, Inc., priority 2000, dated 2004)

Legend:
Type in all cases: biochemical
[1] = target: T1, SRC (Homo sapiens, UniProt P12931); assay: Src transphosphorylation assay; settings: recombinant human Src, poly(Glu-Tyr) substrate
T1 construct: purchased UBI 14-117
Method: Src Transphosphorylation Assay
This assay is used to screen for inhibitors of the tyrosine kinase Src.
1. Coating buffer: PBS containing sodium azide (0.2 mg/ml).
3. Wash buffer: PBS containing 0.05% v/v Tween 20 (PBS-TWEEN)
5. ATP (40 [M)+MgCl2 (80 mM) in distilled water.
6. MgCl2 (80 mM) in distilled water (for no ATP blanks).
7. Test compounds, 10 mM in DMSO.
8. Assay Buffer: 100 mM HEPES, pH 7.4, containing 2 mM DTT, 0.2 mM sodium orthovanadate and 0.2 mgs/ml BSA.
9. Partially purified recombinant human Src (UBI (14-117)
10. Anti-phosphotyrosine (SUGEN rabbit polyclonal anti-PY).
11. HRP-linked goat anti-rabbit Ig (Biosource International #6430)
12. HRP substrate ABTS or Pierce Peroxidase substrate.
13. Corning ELISA plates.
1. Coat plates with 100 μl of 20 μg/ml poly(Glu-Tyr) (Sigma Cat. No.P0275) containing 0.01% sodium azide. Hold overnight at 4° C.
2. Block with 1% BSA at 100 μl/well for one hour at room temperature.
3. Plate test compounds (10 mM in DMSO) at 2 ul/well on a Costar plate ready for dilution with dH2O and plating to reaction plates.
4. Dilute Src kinase 1:10,000 in Reaction Buffer, for 5 plates prepare 25 ml as follows: 2.5 mls 1M HEPES pH7.4 (stored sterile at 4° C.), 21.85 ml distilled water, 0.1 ml 5% BSA, 0.5 ml 10 mM sodium orthovanadate (stored sterile at 4° C.), 50 μl 1.0M DTT (stored frozen at […]), and 2.5 μl Src Kinase (stored frozen at −80° C.).
5. Add 48 μl of distilled water to the 2 ∥l of each compound in the dilution plate then add 25 μl/well of this to the reaction plate.
6. Add 50 μl of […] to each reaction buffer well and then 25 μl ATP-MgCl2/well (MgCl2 only to no ATP blanks). Incubate at room temperature for 15 minutes on plate shaker. Stop reaction by adding 25 μl of 0.5M EDTA to each well.
7. Wash 4× with PBS-TWEEN.
8. […] Incubate with continuous shaking at room temperature for one hour.
9. Wash plates 4× with PBS-TWEEN.
10. Add 100 μl HPP-linked Ig (1:5,000) in PBS-TWEEN containing 0.5% BSA, 0.025% Non-fat milk powder, 100 μM sodium orthovanadate. Incubate with shaking at room temperature for one hour.
11. Wash plates 4× with PBS-TWEEN and then once with PBS.
12. Develop plate using ABTS or other peroxidase substrate.

[2] = target: T2, PDGFR (UniProt P09619); assay: PDGFR bioassay (ELISA, in vitro kinase activity); settings: PDGFR-β expressing NIH 3T3 cell lysate, 20 μM ATP
T2 construct: PDGFR-β expressing NIH 3T3 cell lysate (SUGEN, Inc.)
Method: This assay is used to the in vitro kinase activity of PDGFR in an ELISA assay.
1. Corning 96-well ELISA plates
2. 28D4C10 monoclonal anti-PDGFR antibody (SUGEN, Inc.).
5. Blocking Buffer (same as for EGFR bioassay).
6. PDGFR-β expressing NIH 3T3 cell lysate (SUGEN, Inc.).
11. Kinase buffer phosphorylation mix: for 10 ml, mix 250 μl 1M TRIS, 200 μl 5M NaCl, 100 μl 1M MnCl2 and 501l 100 mM Triton X-100 in enough dH2O to make 10 ml.
12. NUNC 96-well V bottom polypropylene plates.
14. Rabbit polyclonal anti-phosphotyrosine serum (SUGEN, Inc.).
15. Goat anti-rabbit IgG peroxidase conjugate (Biosource Cat. No. ALI0404).
17. Hydrogen peroxide, 30% solution.
1. Coat Corning 96 well ELISA plates with […] 28D4C 10 in 100 μl PBS per well, hold overnight at 4° C.
2. Remove unbound 28D4C10 from wells by inverting plate to remove liquid. Wash 1× with dH2O. Pat the plate on a paper towel to remove excess liquid.
3. Add 150 μl of Blocking Buffer to each well. Incubate for 30 min. at room temperature with shaking.
4. Wash plate 3× with deionized water, then once with TBST. Pat plate on a paper towel to remove excess liquid and bubbles.
5. Dilute lysate in HNTG (10 μg lysate/100 μl HNTG).
6. Add 100 μl of diluted lysate to each well. Shake at room temperature for 60 min.
7. Wash plates as described in Step 4.
8. Add 80 μl working kinase buffer mix to ELISA plate containing captured PDGFR.
9. Dilute test compound 1:10 in TBS in 96-well polypropylene plates.
10. Add 10 μl diluted test compound to -ELISA plate. To control wells, add 10 μl TBS+10% DMSO. Incubate with shaking for 30 minutes at room temperature.
11. Add 10 μl ATP directly to all wells except negative control well (final well volume should be approximately 100 μl with 20 μM ATP in each well.) Incubate 30 minutes with shaking.
12. Stop reaction by adding 10 μl of EDTA solution to each well.
13. Wash 4× with deionized water, twice with TBST.
14. Add 100 μl anti-phosphotyrosine (1:3000 dilution in TBST) per well.
Incubate with shaking for 30-45 min. at room temperature.
16. Add 100 μl Biosource Goat anti-rabbit IgG peroxidase conjugate (1:2000 dilution in TBST) to each well. Incubate with shaking for 30 min. at room temperature.
18. Add 100 μl of ABTS/H2O2 solution to each well.
19. Incubate 10 to 30 minutes with shaking. Remove any bubbles.
20. If necessary stop reaction with the addition of 100 μl 0.2 M HCl per well.
21. Read assay on Dynatech MR7000 ELISA reader with test filter at 410 nM and reference filter at 630 nM.

[3] = target: P38 (Homo sapiens, UniProt Q16539); assay: P38 kinase inhibition
Chain of P38 (Q16539 whole entry): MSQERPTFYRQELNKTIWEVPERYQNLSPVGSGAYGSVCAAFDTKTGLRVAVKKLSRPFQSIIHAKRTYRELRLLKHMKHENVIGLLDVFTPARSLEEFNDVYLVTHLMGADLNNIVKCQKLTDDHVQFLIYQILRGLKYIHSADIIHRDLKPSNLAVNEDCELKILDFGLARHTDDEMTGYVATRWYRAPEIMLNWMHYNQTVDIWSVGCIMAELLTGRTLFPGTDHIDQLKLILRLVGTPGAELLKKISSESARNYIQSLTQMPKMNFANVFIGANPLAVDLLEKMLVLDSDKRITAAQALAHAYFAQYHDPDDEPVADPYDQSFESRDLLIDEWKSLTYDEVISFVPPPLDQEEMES

T1 sequence (P12931 whole entry): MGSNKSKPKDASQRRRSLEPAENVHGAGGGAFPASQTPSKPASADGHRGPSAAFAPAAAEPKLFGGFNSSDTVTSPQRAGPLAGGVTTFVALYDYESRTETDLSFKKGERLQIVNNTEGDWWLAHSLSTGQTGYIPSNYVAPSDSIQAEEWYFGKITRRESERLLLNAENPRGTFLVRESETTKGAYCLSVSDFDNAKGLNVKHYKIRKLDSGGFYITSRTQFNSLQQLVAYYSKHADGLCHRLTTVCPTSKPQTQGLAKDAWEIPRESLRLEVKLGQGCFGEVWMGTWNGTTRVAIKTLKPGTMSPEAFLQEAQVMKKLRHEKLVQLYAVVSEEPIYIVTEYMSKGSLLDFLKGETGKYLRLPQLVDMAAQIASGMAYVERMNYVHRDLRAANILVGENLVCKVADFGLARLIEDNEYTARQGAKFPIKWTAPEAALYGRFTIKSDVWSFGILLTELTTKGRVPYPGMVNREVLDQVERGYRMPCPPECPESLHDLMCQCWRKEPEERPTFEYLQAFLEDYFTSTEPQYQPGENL

With `Cc1[nH]c(/C=C2\C(=O)Nc3cccc(-c4ccc(Cl)cc4)c32)c(C)c1C(=O)N1CCN(C)CC1` [Example 20, 4-(4-Chloro-phenyl)-3-[3,5-dimethyl-4-(4-methyl-piperazine-1-carbonyl)-1H-pyrrol-2-ylmethylene]-1,3-dihydro-indol-2-one] the IC50 [1] was 10.4 µM, the IC50 [2] was 3.39 µM and the IC50 [3] was over 10 µM.
